This note sets out measurements from patent publication US12187706B2, “NLRP3 modulators” (INNATE TUMOR IMMUNITY, INC., priority 2019, dated 2025).

pEC50: −log10 of the molar value.

For one experiment, the target named is T1, NLRP3 (Homo sapiens, UniProt Q96P20).
T1 construct: host or cells: PMA-differentiated THP-1 cells
Kind of experiment: Measurement of IL-1β production in PMA-differentiated THP-1 cells (NLRP3 hIL1B). Format: cell-based. In a few lines:
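THP-1 cells differentiated with PMA, then replated in RPMI with 2% FBS and exposed to compound for 4 h (alternative: 2 h; hTRF protocol: 2 h at 37 °C, top concentration 10 μM). Supernatant IL-1β was quantified by ELISA or HTRF. Final DMSO 1%, with vehicle control.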

The target of the next experiment is T2, human TLR7 (Homo sapiens, UniProt Q9NYK1).
T2 construct: host or cells: human HEK-Blue cells with NF-kB/AP1-inducible SEAP reporter
T2 sequence (Q9NYK1 27-1049): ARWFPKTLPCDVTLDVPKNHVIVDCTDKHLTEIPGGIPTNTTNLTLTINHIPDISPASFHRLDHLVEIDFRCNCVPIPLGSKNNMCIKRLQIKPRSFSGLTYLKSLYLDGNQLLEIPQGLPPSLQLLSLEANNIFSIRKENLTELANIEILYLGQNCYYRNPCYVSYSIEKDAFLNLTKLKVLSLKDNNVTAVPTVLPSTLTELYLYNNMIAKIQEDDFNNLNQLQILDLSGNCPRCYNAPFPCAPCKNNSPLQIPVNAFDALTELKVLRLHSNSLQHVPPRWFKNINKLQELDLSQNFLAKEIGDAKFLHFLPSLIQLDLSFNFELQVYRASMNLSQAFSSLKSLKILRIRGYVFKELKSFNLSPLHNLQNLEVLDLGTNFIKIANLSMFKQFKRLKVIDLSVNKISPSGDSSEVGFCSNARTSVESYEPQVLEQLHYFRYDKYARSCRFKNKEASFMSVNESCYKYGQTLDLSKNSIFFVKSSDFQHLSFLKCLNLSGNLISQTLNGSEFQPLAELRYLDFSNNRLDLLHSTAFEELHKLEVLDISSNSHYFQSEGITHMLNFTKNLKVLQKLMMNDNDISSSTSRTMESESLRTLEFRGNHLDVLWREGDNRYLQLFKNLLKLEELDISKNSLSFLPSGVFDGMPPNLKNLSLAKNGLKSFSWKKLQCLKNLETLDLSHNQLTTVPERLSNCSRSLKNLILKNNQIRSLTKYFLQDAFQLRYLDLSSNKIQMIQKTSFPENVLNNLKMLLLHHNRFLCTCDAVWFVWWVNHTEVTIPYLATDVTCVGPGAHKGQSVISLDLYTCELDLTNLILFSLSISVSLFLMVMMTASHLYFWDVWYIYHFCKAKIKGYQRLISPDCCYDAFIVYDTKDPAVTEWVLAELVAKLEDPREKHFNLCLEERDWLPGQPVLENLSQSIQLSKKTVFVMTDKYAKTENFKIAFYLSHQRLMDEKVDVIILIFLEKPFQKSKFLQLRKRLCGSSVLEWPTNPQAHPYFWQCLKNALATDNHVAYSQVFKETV
Kind of experiment: In vitro human TLR7 reporter assay (HEK-Blue, NF-kB/AP1-inducible SEAP). The settings on record: at 50 μM. Format: cell-based. The method, then: In Vitro Human TLR7 and TLR8 Binding Reporter Assays Logarithmically-growing human HEK-Blue cells co-expressing a TLR7 or TLR8 gene and a NF-kB/AP1-inducible SEAP (secreted embryonic alkaline phosphatase; […] Cellular SEAP production is measured using an Envision plate reader instrument thirty minutes after adding freshly-made Quanti-Blue reagent (prepared by following manufacturer instructions; Invivogen, San Diego, CA) to the HEK-Blue TLR Nf-kB-SEAP cell reactions. All EC50 values (half-maximal effective concentration) are determined using proprietary data analysis software.
A general note: Reporter assays use an easily measured gene product as a stand-in for the process of interest.

T1 sequence (Q96P20 whole entry): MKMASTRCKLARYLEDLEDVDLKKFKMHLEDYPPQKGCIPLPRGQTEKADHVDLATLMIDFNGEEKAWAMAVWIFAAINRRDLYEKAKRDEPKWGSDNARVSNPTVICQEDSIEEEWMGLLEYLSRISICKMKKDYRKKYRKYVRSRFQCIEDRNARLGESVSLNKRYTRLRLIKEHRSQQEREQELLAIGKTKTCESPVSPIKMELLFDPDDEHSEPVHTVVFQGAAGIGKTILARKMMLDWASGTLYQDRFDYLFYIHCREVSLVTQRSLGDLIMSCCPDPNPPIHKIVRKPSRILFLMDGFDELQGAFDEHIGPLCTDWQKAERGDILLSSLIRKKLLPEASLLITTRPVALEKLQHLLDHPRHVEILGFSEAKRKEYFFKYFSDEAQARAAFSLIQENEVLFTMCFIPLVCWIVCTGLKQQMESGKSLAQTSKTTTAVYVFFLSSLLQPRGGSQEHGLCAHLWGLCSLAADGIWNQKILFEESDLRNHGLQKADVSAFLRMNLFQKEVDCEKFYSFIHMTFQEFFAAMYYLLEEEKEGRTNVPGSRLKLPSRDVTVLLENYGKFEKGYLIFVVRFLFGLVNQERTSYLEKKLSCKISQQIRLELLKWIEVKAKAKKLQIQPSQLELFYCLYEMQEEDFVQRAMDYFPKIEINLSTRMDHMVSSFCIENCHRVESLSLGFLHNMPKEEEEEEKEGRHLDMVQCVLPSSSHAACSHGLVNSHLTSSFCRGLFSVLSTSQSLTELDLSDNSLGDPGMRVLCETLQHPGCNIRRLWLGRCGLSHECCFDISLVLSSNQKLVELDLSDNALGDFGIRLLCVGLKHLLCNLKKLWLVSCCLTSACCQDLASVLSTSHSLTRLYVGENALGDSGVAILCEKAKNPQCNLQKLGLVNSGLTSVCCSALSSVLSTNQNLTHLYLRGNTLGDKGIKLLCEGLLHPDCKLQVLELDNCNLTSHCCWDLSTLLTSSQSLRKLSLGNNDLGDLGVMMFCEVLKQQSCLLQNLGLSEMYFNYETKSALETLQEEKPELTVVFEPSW

By pEC50 is commonly meant the negative decadic logarithm of the EC50, by convention in mol/L. Lower therefore signals a high EC50. As to `Nc1nc(OCCO)c2ccc(-c3ccn[nH]3)cc2n1` [Example 4, 2-((2-amino-7-(1H-pyrazol-3-yl)quinazolin-4-yl)oxy)ethan-1-ol], the pEC50 at NLRP3 is 5.18. For the same molecule, on human TLR7, the TLR7 agonist activity is given as less than 50%.
